Molecular target: T1, SIRT1 (Homo sapiens, UniProt Q96EB6)
T1 construct: His-tag (N); made in house; host or cells: E. coli BL21(DE3), T7-promoter vector
T1 sequence (Q96EB6 1-747): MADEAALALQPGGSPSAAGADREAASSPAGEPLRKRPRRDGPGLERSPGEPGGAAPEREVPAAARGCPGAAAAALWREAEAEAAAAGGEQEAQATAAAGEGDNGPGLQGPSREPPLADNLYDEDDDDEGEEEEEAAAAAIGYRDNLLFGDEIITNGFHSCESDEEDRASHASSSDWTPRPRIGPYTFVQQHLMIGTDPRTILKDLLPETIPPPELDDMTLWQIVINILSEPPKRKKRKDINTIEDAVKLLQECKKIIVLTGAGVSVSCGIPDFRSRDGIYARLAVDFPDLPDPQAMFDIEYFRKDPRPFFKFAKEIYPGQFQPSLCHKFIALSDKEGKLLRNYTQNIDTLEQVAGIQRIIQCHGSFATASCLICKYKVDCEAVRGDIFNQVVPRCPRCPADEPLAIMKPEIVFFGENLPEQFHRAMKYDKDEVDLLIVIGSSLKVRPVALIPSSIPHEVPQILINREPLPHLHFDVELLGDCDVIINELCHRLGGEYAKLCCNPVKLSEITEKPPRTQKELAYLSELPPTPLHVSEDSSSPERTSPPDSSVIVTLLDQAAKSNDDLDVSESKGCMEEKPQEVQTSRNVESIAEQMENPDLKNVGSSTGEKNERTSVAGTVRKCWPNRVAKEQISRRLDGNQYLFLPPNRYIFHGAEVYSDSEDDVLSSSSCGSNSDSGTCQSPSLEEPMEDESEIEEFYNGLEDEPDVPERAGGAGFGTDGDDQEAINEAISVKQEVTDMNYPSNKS
Experiment: Mass spectrometry based assay for modulators of SIRT1 activity (deacetylation of p53-based acetylated peptide)
Format: biochemical
Conditions: for EC1.5: concentration of test compound that results in 150% activation of SIRT1, 0.5 μM peptide substrate, 120 μM βNAD+, 10 nM SIRT1, 25 min, 25° C.; for Emax: percent maximum fold activation of SIRT1
Description: A mass spectrometry based assay was used to identify modulators of SIRT1 activity. The mass spectrometry based assay utilizes a peptide having 20 amino acid residues as follows: Ac-EE-K(biotin)-GQSTSSHSK(Ac)NleSTEG-K(5TMRi)-EE-NH2 (SEQ ID NO: 1) wherein K(Ac) is an acetylated lysine residue and Nle is a norleucine. The peptide is labeled with the fluorophore 5TMR (excitation 540 nm/emission 580 nm) at the C-terminus. The sequence of the peptide substrate is based on p53 with several modifications. In addition, the methionine residue naturally present in the sequence was replaced with the norleucine because the methionine may be susceptible to oxidation during synthesis and purification.
The mass spectrometry assay is conducted as follows: 0.5 μM peptide substrate and 120 μM βNAD+ is incubated with 10 nM SIRT1 for 25 minutes at 25° C. in a reaction buffer (50 mM Tris-acetate pH 8, 137 mM NaCl, 2.7 mM KCl, 1 mM MgCl2, 5 mM DTT, 0.05% BSA). Test compounds may be added to the reaction as described above. The SirT1 gene is cloned into a T7-promoter containing vector and transformed into BL21(DE3). After the 25 minute incubation with SIRT1, 10 μL of 10% formic acid is added to stop the reaction. Reactions are sealed and frozen for later mass spec analysis. Determination of the mass of the substrate peptide allows for precise determination of the degree of acetylation (i.e. starting material) as compared to deacetylated peptide (product).
A control for inhibition of sirtuin activity is conducted by adding 1 μL of 500 mM nicotinamide as a negative control at the start of the reaction (e.g., permits determination of maximum sirtuin inhibition). A control for activation of sirtuin activity is conducted using 10 nM of sirtuin protein, with 1 μL of DMSO in place of compound, to determinine the amount of deacetylation of the substrate at a given timepoint within the linear range of the assay. This timepoint is the same as that used for test compounds and, within the linear range, the endpoint represents a change in velocity.
For the above assay, SIRT1 protein was expressed and purified as follows. The SirT1 gene was cloned into a T7-promoter containing vector and transformed into BL21(DE3). The protein was expressed by induction with 1 mM IPTG as an N-terminal His-tag fusion protein at 18° C. overnight and harvested at 30,000×g. Cells were lysed with lysozyme in lysis buffer (50 mM Tris-HCl, 2 mM Tris[2-carboxyethyl]phosphine (TCEP), 10 μM ZnCl2, 200 mM NaCl) and further treated with sonication for 10 min for complete lysis. The protein was purified over a Ni-NTA column (Amersham) and fractions containing pure protein were pooled, concentrated and run over a sizing column (Sephadex S200 26/60 global). The peak containing soluble protein was collected and run on an Ion-exchange column (MonoQ). Gradient elution (200 mM-500 mM NaCl) yielded pure protein. This protein was concentrated and dialyzed against dialysis buffer (20 mM Tris-HCl, 2 mM TCEP) overnight. The protein was aliquoted and frozen at −80° C. until further use.
Sirtuin modulating compounds that activated SIRT1 were identified using the assay described above and are shown below in Table 1. The EC1.5 values represent the concentration of test compounds that result in 150% activation of SIRT1. The EC1.5 values for the activating compounds are represented by A (EC1.5<1.0 uM), B (EC1.5 1-25 uM), C (EC1.5>25 uM). The percent maximum fold activation is represented by A (Fold activation >200%) or B (Fold Activation <200%). “NT” indicates the compound was not tested in a particular assay.

| SMILES | EC1.5 | Emax [%] |
| --- | --- | --- |
| O=C(Nc1cccn2cc(-c3cccc(-c4ccccc4)c3)nc12)c1cnccn1 [Compound 123, N-(2-(biphenyl-3-yl)imidazo[1,2-a]pyridin-8-yl)pyrazine-2-carboxamide] | C (EC1.5>25 uM) | < 200 |
| O=C(Nc1cccn2cc(-c3cccc(-c4ccccc4)c3)nc12)c1ccncc1 [Compound 124] | C (EC1.5>25 uM) | < 200 |
| O=C(Nc1cccn2cc(-c3cccc(-c4ccccc4)c3)nc12)c1ncccn1 [Compound 125] | B (EC1.5 1-25 uM) | < 200 |
| O=C(Nc1cccn2cc(-c3ccccc3)nc12)c1cccc(N2CCCC2)c1 [Compound 131] | C (EC1.5>25 uM) | < 200 |
| O=C(Nc1nccs1)c1nccn2cc(-c3cccc(C(F)(F)F)c3)nc12 [Compound 138, N-(thiazol-2-yl)-2-(3-(trifluoromethyl)phenyl)imidazo[1,2-a]pyrazine-8-carboxamide] | C (EC1.5>25 uM) | < 200 |
| O=C(Nc1nccs1)c1nccn2cc(-c3cccc(OC(F)(F)F)c3)nc12 [Compound 142] | C (EC1.5>25 uM) | < 200 |
| O=C(Nc1ccccn1)c1nccn2cc(-c3cccc(OC(F)(F)F)c3)nc12 [Compound 143] | C (EC1.5>25 uM) | < 200 |
| O=C(Nc1nccs1)c1cccn2cc(-c3ccccc3F)nc12 [Compound 152] | C (EC1.5>25 uM) | < 200 |
| O=C(Nc1ccccn1)c1cccn2cc(-c3ccccc3F)nc12 [Compound 153] | C (EC1.5>25 uM) | < 200 |
| O=C(Nc1nccs1)c1cccn2cc(-c3cccc(F)c3)nc12 [Compound 154] | C (EC1.5>25 uM) | < 200 |
| O=C(Nc1ccccn1)c1cccn2cc(-c3cccc(F)c3)nc12 [Compound 155] | C (EC1.5>25 uM) | < 200 |
| O=C(Nc1nccs1)c1cccn2cc(-c3ccc(F)cc3)nc12 [Compound 156] | C (EC1.5>25 uM) | < 200 |
| O=C(Nc1ccccn1)c1cccn2cc(-c3ccc(F)cc3)nc12 [Compound 157] | B (EC1.5 1-25 uM) | < 200 |
| Cc1ccc(-c2cn3ccnc(C(=O)Nc4nccs4)c3n2)cn1 [Compound 162] | C (EC1.5>25 uM) | < 200 |
| Cc1ccc(-c2cn3ccnc(C(=O)Nc4ccccn4)c3n2)cn1 [Compound 163] | B (EC1.5 1-25 uM) | < 200 |
| Cc1ccc(-c2cn3ccnc(C(=O)Nc4nc(CN5CCOCC5)cs4)c3n2)cn1 [Compound 164] | B (EC1.5 1-25 uM) | < 200 |
| O=C(Nc1nccs1)c1cccn2cc(-c3ccc(N4CCCC4)cc3)nc12 [Compound 166] | C (EC1.5>25 uM) | < 200 |
| O=C(Nc1nccs1)c1nccn2cc(-c3ccc(N4CCCC4)cc3)nc12 [Compound 168] | C (EC1.5>25 uM) | < 200 |

Results, then the molecule that gave them:

| EC1.5 | Emax [%] | SMILES |
| --- | --- | --- |
| A (EC1.5<1.0 uM) | > 200 | O=C(Nc1nc(CN2CCOCC2)cs1)c1cccn2cc(-c3cccc(C(F)(F)F)c3)nc12 [Compound 132, N-(4-(morpholinomethyl)thiazol-2-yl)-2-(3-(trifluoromethyl)phenyl)imidazo[1,2-a]pyridine-8-carboxamide] |
| A (EC1.5<1.0 uM) | > 200 | O=C(Nc1nc(CN2CCOCC2)cs1)c1cccn2cc(-c3cccc(OC(F)(F)F)c3)nc12 [Compound 133] |
| A (EC1.5<1.0 uM) | > 200 | O=C(Nc1ncc(CN2CCOCC2)s1)c1cccn2cc(-c3cccc(C(F)(F)F)c3)nc12 [Compound 134, N-(5-(morpholinomethyl)thiazol-2-yl)-2-(3-(trifluoromethyl)phenyl)imidazo[1,2-a]pyridine-8-carboxamide] |
| B (EC1.5 1-25 uM) | > 200 | O=C(Nc1ncc(CN2CCOCC2)s1)c1cccn2cc(-c3cccc(OC(F)(F)F)c3)nc12 [Compound 135] |
| B (EC1.5 1-25 uM) | > 200 | O=C(Nc1cccc(OCC(O)CO)c1)c1cccn2cc(-c3cccc(OC(F)(F)F)c3)nc12 (stereo not drawn) [Compound 136] |
| A (EC1.5<1.0 uM) | > 200 | O=C(Nc1cccc(OCC(O)CO)c1)c1cccn2cc(-c3cccc(C(F)(F)F)c3)nc12 (stereo not drawn) [Compound 137, N-(3-(2,3-dihydroxypropoxy)phenyl)-2-(3-(trifluoromethyl)phenyl)imidazo[1,2-a]pyridine-8-carboxamide] |
| A (EC1.5<1.0 uM) | > 200 | Cc1ccc(NC(=O)c2cccn3cc(-c4ccc(F)cc4C(F)(F)F)nc23)cc1 [Compound 141] |
| B (EC1.5 1-25 uM) | > 200 | O=C(Nc1ncc(CN2CCCC2)s1)c1cccn2cc(-c3ccc(F)cc3C(F)(F)F)nc12 [Compound 146] |
| B (EC1.5 1-25 uM) | > 200 | O=C(Nc1ccc(CN2CCOCC2)cc1)c1cccn2cc(-c3ccc(F)cc3C(F)(F)F)nc12 [Compound 147] |
| C (EC1.5>25 uM) | < 200 | O=C(Nc1nccs1)c1cccn2cc(-c3ccccc3C(F)(F)F)nc12 [Compound 148] |
| B (EC1.5 1-25 uM) | > 200 | O=C(Nc1ccccn1)c1cccn2cc(-c3ccccc3C(F)(F)F)nc12 [Compound 149] |
| C (EC1.5>25 uM) | < 200 | O=C(Nc1nccs1)c1cccn2cc(-c3ccc(C(F)(F)F)cc3)nc12 [Compound 150] |
| C (EC1.5>25 uM) | < 200 | O=C(Nc1ccccn1)c1cccn2cc(-c3ccc(C(F)(F)F)cc3)nc12 [Compound 151] |
| A (EC1.5<1.0 uM) | > 200 | O=C(Nc1cccc(CN2CCOCC2)n1)c1nccn2cc(-c3cccc(OC(F)(F)F)c3)nc12 [Compound 158] |
| A (EC1.5<1.0 uM) | > 200 | O=C(Nc1cccc(CN2CCOCC2)n1)c1cccn2cc(-c3cccc(C(F)(F)F)c3)nc12 [Compound 160] |
| A (EC1.5<1.0 uM) | > 200 | O=C(Nc1cccc(CN2CCOCC2)n1)c1cccn2cc(-c3cccc(OC(F)(F)F)c3)nc12 [Compound 161] |
| B (EC1.5 1-25 uM) | < 200 | Cc1ccc(-c2cn3ccnc(C(=O)Nc4cccc(CN5CCOCC5)n4)c3n2)cn1 [Compound 165] |
| C (EC1.5>25 uM) | < 200 | O=C(Nc1ccccn1)c1cccn2cc(-c3ccc(N4CCCC4)cc3)nc12 [Compound 167] |
